Structures can show the parent of a compound that is named as a salt. Where two headings read alike, the source gives them in different places.
What was measured:
[1] = molecular target: T1, SARS-CoV-2 PLpro (nsp3 1564–1878) (Severe acute respiratory syndrome coronavirus 2, UniProt P0DTD1); experiment: biochemical; parameters: FRET-quenched peptide (Pro3) cleavage by PLpro, 10 min pre-incubation, slope over 20 min, normalised to no-compound control; conditions: low concentration screen, read-out: % of control remaining
[2] = molecular target: T1, SARS-CoV-2 PLpro (nsp3 1564–1878); experiment: biochemical; parameters: FRET-quenched peptide (Pro3) cleavage by PLpro, 10 min pre-incubation, slope over 20 min, normalised to no-compound control; conditions: high concentration screen, read-out: % of control remaining

SMILES: COc1ccc2cc1Oc1ccc(cc1)C[C@H]1c3cc(c(OC)cc3CCN1C)Oc1c(OC)c(OC)cc3c1[C@H](C2)N(C)CC3 [Tetrandrine]
- remaining activity at 1.25 µM ([1]; Well no.=3182): 103%
- remaining activity at 3.75 µM ([2]; Well no.=3182): 99.4%

SMILES: CCCCC/C=C\C[C@@H](O)/C=C/C=C\CCC(=O)O [Tetranor-12(R)-HETE]
- remaining activity at 1.25 µM ([1]; Well no.=4563): 97%
- remaining activity at 3.75 µM ([2]; Well no.=4563): 97.6%

SMILES: O=C1CCC(N2C(=O)c3ccccc3C2=O)C(=O)N1 (stereo not drawn) [Thalidomide]
- remaining activity at 1.25 µM ([1]; Well no.=2261): 98.2%
- remaining activity at 3.75 µM ([2]; Well no.=2261): 102%

SMILES: C/C=C(/C)C(=O)O[C@H]1C(C)=C2[C@H]([C@@H]1OC(=O)CCCCCCC)[C@@](C)(OC(C)=O)C[C@H](OC(=O)CCC)[C@@]1(O)[C@H]2OC(=O)[C@@]1(C)O [Thapsigargin]
- remaining activity at 1.25 µM ([1]; Well no.=1470): 98%
- remaining activity at 1.25 µM ([1]; Well no.=3184): 107%
- remaining activity at 3.75 µM ([2]; Well no.=1470): 95.1%
- remaining activity at 3.75 µM ([2]; Well no.=3184): 107%

SMILES: Cn1cnc2c1c(=O)[nH]c(=O)n2C [Theobromine]
- remaining activity at 1.25 µM ([1]; Well no.=1479): 96.7%
- remaining activity at 1.25 µM ([1]; Well no.=3491): 95.7%
- remaining activity at 1.25 µM ([1]; Well no.=6387): 101%
- remaining activity at 1.25 µM ([1]; Well no.=8067): 106%
- remaining activity at 3.75 µM ([2]; Well no.=1479): 97.3%
- remaining activity at 3.75 µM ([2]; Well no.=3491): 96.4%
- remaining activity at 3.75 µM ([2]; Well no.=6387): 102%
- remaining activity at 3.75 µM ([2]; Well no.=8067): 104%

SMILES: c1ccc2[nH]c(-c3cscn3)nc2c1 [Thiabendazole]
- remaining activity at 1.25 µM ([1]; Well no.=4622): 100%
- remaining activity at 3.75 µM ([2]; Well no.=4622): 98.1%

SMILES: Cc1ncc(C[n+]2csc(CCO)c2C)c(N)n1 [Thiamine HCl (Vitamin B1)]
- remaining activity at 1.25 µM ([1]; Well no.=4638): 94.5%
- remaining activity at 3.75 µM ([2]; Well no.=4638): 96.6%

SMILES: CS(=O)(=O)c1ccc([C@H](O)[C@@H](COC(=O)CN)NC(=O)C(Cl)Cl)cc1 [Thiamphenicol glycinate]
- remaining activity at 1.25 µM ([1]; Well no.=2025): 109%
- remaining activity at 3.75 µM ([2]; Well no.=2025): 108%

SMILES: O=C(NCc1ccccc1)c1csc(Nc2ccncn2)n1 [Thiazovivin]
- remaining activity at 1.25 µM ([1]; Well no.=4867): 100%
- remaining activity at 3.75 µM ([2]; Well no.=4867): 102%

SMILES: NC(=S)c1ccc[n+]([C@@H]2O[C@H](COP(=O)([O-])OP(=O)(O)OC[C@H]3O[C@@H](n4cnc5c(N)ncnc54)[C@H](OP(=O)(O)O)[C@@H]3O)[C@@H](O)[C@H]2O)c1 [Thio-NADP sodium]
- remaining activity at 1.25 µM ([1]; Well no.=1481): 98%
- remaining activity at 3.75 µM ([2]; Well no.=1481): 93.5%

SMILES: Nc1nc2[nH]cnc2c(=S)[nH]1 [Thioguanine]
- remaining activity at 1.25 µM ([1]; Well no.=4624): 102%
- remaining activity at 3.75 µM ([2]; Well no.=4624): 102%

SMILES: S=C(NC1CCCCC1)N1CCC(c2cnc[nH]2)CC1 [Thioperamide maleate]
- remaining activity at 1.25 µM ([1]; Well no.=1234): 102%
- remaining activity at 3.75 µM ([2]; Well no.=1234): 104%

SMILES: CSc1ccc2c(c1)N(CCC1CCCCN1C)c1ccccc1S2 (stereo not drawn) [Thioridazine (hydrochloride)]
- remaining activity at 1.25 µM ([1]; Well no.=7376): 97.9%
- remaining activity at 3.75 µM ([2]; Well no.=7376): 98.1%

SMILES: CSc1ccc2c(c1)N(CCC1CCCCN1C)c1ccccc1S2 (stereo not drawn) [Thioridazine hydrochloride]
- remaining activity at 1.25 µM ([1]; Well no.=1422): 96.4%
- remaining activity at 3.75 µM ([2]; Well no.=1422): 95.6%

SMILES: CSc1ccc2c(c1)N(CCC1CCCCN1C)c1ccccc1S2 (stereo not drawn) [Thioridazine]
- remaining activity at 1.25 µM ([1]; Well no.=2140): 97.3%
- remaining activity at 3.75 µM ([2]; Well no.=2140): 96.6%

SMILES: CN1CCN(CC/C=C2/c3ccccc3Sc3ccc(S(=O)(=O)N(C)C)cc32)CC1 [Thiothixene hydrochloride]
- remaining activity at 1.25 µM ([1]; Well no.=1281): 106%
- remaining activity at 3.75 µM ([2]; Well no.=1281): 112%

SMILES: NC(N)=S [Thiourea]
- remaining activity at 1.25 µM ([1]; Well no.=4097): 98.1%
- remaining activity at 3.75 µM ([2]; Well no.=4097): 101%

SMILES: CCCCC[C@H](O)/C=C/[C@H]1OC(O)C[C@H](O)[C@@H]1C/C=C\CCCC(=O)O (stereo partly drawn) [Thromboxane B2]
- remaining activity at 1.25 µM ([1]; Well no.=4286): 99.3%
- remaining activity at 3.75 µM ([2]; Well no.=4286): 98.5%

SMILES: Cc1cn([C@H]2C[C@H](O)[C@@H](CO)O2)c(=O)[nH]c1=O [Thymidine]
- remaining activity at 1.25 µM ([1]; Well no.=7349): 104%
- remaining activity at 1.25 µM ([1]; Well no.=7770): 94.3%
- remaining activity at 3.75 µM ([2]; Well no.=7349): 106%
- remaining activity at 3.75 µM ([2]; Well no.=7770): 97.4%

SMILES: Cc1c[nH]c(=O)[nH]c1=O [Thymine]
- remaining activity at 1.25 µM ([1]; Well no.=6629): 103%
- remaining activity at 3.75 µM ([2]; Well no.=6629): 108%

SMILES: CC1=CC(=O)C(C(C)C)=CC1=O [Thymoquinone]
- remaining activity at 1.25 µM ([1]; Well no.=3567): 101%
- remaining activity at 1.25 µM ([1]; Well no.=4095): 102%
- remaining activity at 3.75 µM ([2]; Well no.=3567): 102%
- remaining activity at 3.75 µM ([2]; Well no.=4095): 101%

From PMC8286840, “Identifying SARS-CoV-2 antiviral compounds by screening for small molecule inhibitors of Nsp3 papain-like protease” (Biochemical Journal, 2021)
